Reference: patent publication US20220117266A1, “NICKEL CHELATION THERAPY” (priority 2019, published 2022)

Columns and labels:
[1] = tested on: S. Typhimurium (ATCC 14028); test: DMG growth inhibition in liquid culture (CFU/mL); assay type: cell-based, Salmonella enterica serovar Typhimurium
Procedure: (§1) Growth conditions. All strains were routinely grown on LB agar plates or in LB broth. For DMG-growth inhibition study, S. Typhimurium strains ATCC 14028 and ATCC 700408 were grown in M9 minimal medium (M9 minimal salts, 0.4% glucose, 2 mM MgSO4, 0.1 mM CaCl2), and 1 μg/mL thiamine, pH 7.2). K. pneumoniae was grown in “W-U” medium, modified from Bender et al. 1977 129:1001-1009, containing 60 mM K2HPO4, 33 mM KH2PO4, 0.4 mM MgSO4, 0.4% Glucose, and 5 mM urea (instead of KNO3), pH 7.4. Briefly, overnight cultures of S. Typhimurium and K. pneumoniae were harvested, spun at 14,000 rpm for five minutes, washed once with either M9 (S. Typhimurium) or W-U (K. pneumoniae) and resuspended in either M9 (S. Typhimurium) or W-U (K. pneumoniae). […] Cells were incubated for 24 hours at 37° C. with shaking at 250 rpm, then serially diluted in PBS and 5 μL of each dilution was spotted in triplicate on LB plate. Colony forming units (CFU) were counted after 16 hours at 37° C. Each growth experiment was done at least three times.

[2] = tested on: MDR S. Typhimurium (ATCC 700408); test: DMG growth inhibition in liquid culture (CFU/mL); assay type: cell-based, Salmonella enterica serovar Typhimurium
Procedure: as §1

[3] = tested on: S. Typhimurium ATCC 700408; test: Biofilm inhibition assay (crystal violet); assay type: cell-based, Salmonella enterica serovar Typhimurium; settings: 18 hours with DMG
Procedure: Biofilm inhibition assay. S. Typhimurium and K. pneumoniae cultures were adjusted to an optical density (OD600) of 0.1 in fresh LB broth. H. pylori culture was adjusted to an OD600 of 0.15 in brain heart infusion (BHI) supplemented with 0.4% β-cyclodextran. […] Plates containing S. Typhimurium and K. pneumoniae were incubated at 37° C. aerobically without shaking for 18 hours. Plates containing H. pylori were incubated at 37° C. microaerobically without shaking for 48 hours. After incubation with (Na2DMG) a crystal violet biofilm assay was performed as previously described with modifications (Kwasny et al. 2010. Current Protocols in Pharmacology 50:13A. 8.1-13A. 8.23). Briefly, supernatant was removed from the wells. Next, adherent cells were gently washed with phosphate-buffered saline (PBS) and allowed to air dry for 15 minutes. Cells were then heat fixed for one hour at 60° C. before staining with 0.5% crystal violet for 5 minutes. After the crystal violet was thoroughly washed from the wells with distilled deionized water, cells were air dried for 15 minutes. Acetic acid (33%) was then added to the wells to solubilize the crystal violet. The crystal violet-acetic acid solution was transferred to a clean 96 well plate and the OD600 was measured.

[4] = tested on: H2-uptake hydrogenase activity in S. Typhimurium 14028; test: Amperometric hydrogenase assay on whole cells grown with DMG; assay type: cell-based
Procedure: H2-uptake hydrogenase activity is required for colonization in a murine model.
Amperometric hydrogenase assays. […] Cells were suspended in phosphate-buffered saline (PBS) to a final concentration of 8×10^8, per mL and added to a sealed amperometric dual-electrode chamber, with constant stirring; 100 μL of H2-saturated phosphate-buffered saline was added to the chamber and the disappearance of H2 was recorded over time. Hydrogenase activity is expressed in nmoles of H2 oxidized per minute per 10^8 cells.

[5] = tested on: urease activity in K. pneumoniae BAA-2472; test: Urease assay on cell-free extracts of cells grown with DMG; assay type: biochemical; settings: overnight
Procedure: Thus, similar to hydrogenase inhibition, it appears DMG-mediated Ni chelation can be used to efficiently block urease activity in Klebsiella.
Urease assays. […] Cells were pelleted at 6,000 rpm for 30 minutes and washed three times with PBS (pH 7.4). Cells were standardized to an optical density (OD600) of 4.5, added to sterile glass beads (0.1 mm diameter, Biospec Products, Bartlesville, Okla.) at a 100% w/v ratio, and frozen at −80° C. The bead and cell mixture was thawed at room temperature and vortexed at 3,200 rpm for six minutes with one minute intervals on ice. The mixture was pelleted at 14,000 rpm for two minutes and the cell-free supernatant was assayed for urease activity using the phenol-hypochlorite method (Weatherburn et al. 1967. Analytical Chemistry 39:971-974). Protein concentration was determined using the BCA protein kit (Thermo Fisher Pierce, Rockford, Ill., USA). Urease activity is expressed as μmoles of NH3 produced per minute per mg of total protein.

[6] = tested on: Helicobacter pylori 43504; test: Antibiofilm assay on established biofilm; assay type: cell-based; settings: DMG added for additional 24 hours
Procedure: Antibiofilm assay. H. pylori culture at OD600=0.15 was added to a non-tissue culture treated polystyrene 96 well plate (Falcon) and incubated at 37° C. micro-aerobically without shaking for 48 hours. After the initial incubation, the supernatant was removed from the wells and BHI+0.4% β-cyclodextran was added back to the wells with or without Na2DMG at various concentrations. The plate was then incubated an additional 24 hours. Then, the crystal violet biofilm assay was performed as above.

[7] = tested on: C. jejuni (strain NCTC 11168); test: C. jejuni-chicken colonization experiment; assay type: in vivo, chickens
Procedure: Since chickens are natural hosts for C. jejuni, and chicken meat is one of the main sources of campylobacteriosis in humans, it was important to test the efficacy of DMG alone or in combination with copper in this animal model. Two independent trials were conducted, as described in FIG. 22. In both trials, the treatment was administered through ad libitum drinks, starting two to three days before C. jejuni inoculation (with strain NCTC 11168), and going through the end of each experiment. […] Nine days after inoculation with C. jejuni, chickens were euthanized, and their ceca were isolated for bacterial count. […] The treatment was administered two days before inoculation with C. jejuni, and chicken ceca were harvested eight days after inoculation.

[8] = Experiment 1, ad libitum CuSO4 (0.2 mM) + DMG (10 mM), total n=6, 9 days p.i.
[9] = Experiment 2, ad libitum CuSO4 (0.2 mM) + DMG (15 mM), total n=5, 8 days p.i.
[10] = Experiment 2, ad libitum DMG (15 mM), total n=7, 8 days p.i.
[11] = first trial, DMG (10 mM) combined with CuSO4 (0.2 mM)

SMILES: CC(=NO)C(C)=NO [DMG, dimethylglyoxime]
- effect on bacterial growth ([1]; DMG at 2.5 mM, 5 mM, or 7.5 mM): no measurable effect
- inhibition at 10000 µM ([1]; Salmonella enterica, 24 h): > 100%
- effect on bacterial growth ([2]; DMG at 2.5 mM, 5 mM, or 7.5 mM): no measurable effect
- inhibition at 10000 µM ([2]; Salmonella enterica, 24 h): > 100%
- biofilm formation [3]: able to inhibit biofilm formation
- increase in hydrogenase activity compared to the 1 mM DMG medium ([4]; 1 mM DMG + 50 μM NiCl2): 50%
- Hydrogenase activity ([4]; DMG 0.1 mM in blood-based medium, six hours, H2-enriched microaerobic, DMG D1885 (anhydrous)): 14.0 ± 2.7 nmoles H2 oxidized per minute per 10^9 cells
- Hydrogenase activity ([4]; DMG 0.5 mM): 4.6 ± 1.2 nmoles H2 oxidized per minute per 10^9 cells
- Hydrogenase activity ([4]; DMG 1 mM): 3.9 ± 0.9 nmoles H2 oxidized per minute per 10^9 cells
- Hydrogenase activity ([4]; DMG 1 mM + NiCl2 0.05 mM): 6.9 ± 1.7 nmoles H2 oxidized per minute per 10^9 cells
- Hydrogenase activity ([4]; DMG 5 mM): 0.8 ± 0.1 nmoles H2 oxidized per minute per 10^9 cells
- Urease activity ([5]; DMG 1 mM in LB broth): 0.05 ± 0.01 μmoles of NH3 produced per minute per mg of total protein
- Urease activity ([5]; DMG 2 mM in LB broth): 0.03 ± 0.01 μmoles of NH3 produced per minute per mg of total protein
- effect on established (48 hours of growth) biofilm [6]: able to counteract
- C. jejuni Average CFUs per g of cecum (x10^8) ([7]; Experiment 1, ad libitum CuSO4 (0.2 mM) + DMG (10 mM), 9 days p.i.): 1.12 x10^8 CFUs per g of cecum
- Chickens Cj-free (n=) [7, 8]: 2
- Chickens Colonized (n=) [7, 8]: 4
- C. jejuni Average CFUs per g of cecum (x10^8) ([7]; Experiment 2, ad libitum CuSO4 (0.2 mM) + DMG (15 mM), 8 days p.i.): 1.99 x10^8 CFUs per g of cecum
- Chickens Cj-free (n=) [7, 9]: 0
- Chickens Colonized (n=) [7, 9]: 5
- C. jejuni Average CFUs per g of cecum (x10^8) ([7]; Experiment 2, ad libitum DMG (15 mM), 8 days p.i.): 2.38 x10^8 CFUs per g of cecum
- Chickens Cj-free (n=) [7, 10]: 1
- Chickens Colonized (n=) [7, 10]: 6
- chickens in which C. jejuni was not recovered ([7]; first trial, Cu-DMG treated group (n=6)): 33%
- decrease in bacterial count in the cecum compared to the copper-only control [7, 11]: 5 fold
- decrease in bacterial count in the cecum compared to the water-only control [7, 11]: 3 fold
- decrease in bacterial burden compared to the water control ([7]; second trial, DMG (15 mM) combined with CuSO4 (0.2 mM)): approximately 3.5 fold
- less bacterial colonization of the cecum compared to the water only control ([7]; second trial, DMG only (15 mM)): approximately 3 fold
